Here are results for 18 molecules from patent US12018021B2 (UCB Biopharma SRL, priority 2018, dated 2024).

This experiment deals with IgE-Tb / sFcεRIα-Y131A-AF488 (Homo sapiens, UniProt P01854, N146Q/N252Q). Nature of the experiment: IgE-Tb / sFcεRIα-Y131A-AF488 FRET assay (protocol for examples 234 to 501). It is filed as binding. Particulars: examples 234 to 501: compound with IgE-Tb 30 minutes before sFcεRIα-Y131A-AF488, incubated 18 hours at room temperature; read-out: Y131A FRET IC50 range. The method, then: For examples 234 to 501, the assay was conducted according to the following: Each assay reaction was conducted in a volume of 25 μl in a 384-well half-volume plate. 10 point compound serial dilutions (3-fold) were generated in DMSO at a concentration of ×50 that of the final assay concentration (FAC). Compound solutions were then prepared by diluting 10-fold in assay buffer. For the assay, 5l of diluted compound was added to 10 μl of IgE-Tb and incubated for 30 minutes before the addition of 10 μ[…]. FRET reagents FACs were 5 nM IgE-Tb, 25 nM […]. Usually the top FAC of compound in the assay was 10 μM. The final DMSO concentration was 2%. […] The maximum FRET signal (MAX) was measured in wells containing FRET reagents but no compound. The assay was incubated for 18 hours at room temperature, protected from light and evaporation, and with gentle agitation. Measurement of FRET for each well was carried out by exciting at 337 nm and measuring emission at 490/520 nm using a PHERAstar FSX plate reader (BMG Labtech). FRET ratio was calculated as follows: Emission at 520/7Emission at 490×1000. The FRET ratio was used for the data analysis. […] Z' above 0.5 was considered a good assay. Background signal (MIN) was subtracted from all wells. […] Percent inhibition was plotted against compound concentration. IC50 values for each compound were determined using four parameter logistic fit model using the XLFIT5 software package.
Chain of IgE-Tb / sFcεRIα-Y131A-AF488 (P01854 whole entry N146Q/N252Q): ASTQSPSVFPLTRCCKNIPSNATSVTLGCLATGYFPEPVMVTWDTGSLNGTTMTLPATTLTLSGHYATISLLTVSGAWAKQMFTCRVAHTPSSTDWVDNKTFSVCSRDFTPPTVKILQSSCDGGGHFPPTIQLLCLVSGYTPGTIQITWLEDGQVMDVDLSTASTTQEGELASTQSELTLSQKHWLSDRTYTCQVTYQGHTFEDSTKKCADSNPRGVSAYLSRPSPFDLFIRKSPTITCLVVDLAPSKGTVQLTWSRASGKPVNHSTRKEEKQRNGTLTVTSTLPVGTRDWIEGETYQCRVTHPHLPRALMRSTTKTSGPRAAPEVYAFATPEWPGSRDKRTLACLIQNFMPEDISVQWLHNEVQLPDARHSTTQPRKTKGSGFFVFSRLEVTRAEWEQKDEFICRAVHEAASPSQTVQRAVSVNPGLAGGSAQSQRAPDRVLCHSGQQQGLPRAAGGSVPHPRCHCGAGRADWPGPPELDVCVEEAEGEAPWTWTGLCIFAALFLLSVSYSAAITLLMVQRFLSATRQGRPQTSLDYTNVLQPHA

In the case of `Cc1c(Nc2nncn2[C@H]2CCc3sc(NC(=O)C4CC4)c(C(=O)NCC4CC4)c3C2)cccc1S(C)(=N)=O` (mixture of isomers) [Example 235, (5S)-2-cyclopropaneamido-N-(cyclopropylmethyl)-5-[3-({3-[imino(methyl)oxo-lambda6-sulfanyl]-2-methylphenyl}amino)-4H-1,2,4-triazol-4-yl]-4,5,6,7-tetrahydro-1-benzothiophene-3-carboxamide], the IC50 (usually the midpoint of a concentration-inhibition curve) is less than 1 µM.

For the molecule `CC(=O)N1CCC(C)(Nc2nncn2[C@H]2CCc3sc(NC(=O)C4CC4)c(C(=O)NCC4CC4)c3C2)C1` (mixture of isomers) [Example 238, (5S)-5-{3-[(1-acetyl-3-methylpyrrolidin-3-yl)amino]-4H-1,2,4-triazol-4-yl}-2-cyclopropaneamido-N-(cyclopropylmethyl)-4,5,6,7-tetrahydro-1-benzothiophene-3-carboxamide], the IC50 was less than 1 µM.

For the molecule `CS(=N)(=O)c1cccc(Nc2nncn2[C@H]2CCc3sc(NC(=O)C4CC4)c(C(=O)NCC4CC4)c3C2)c1` (mixture of isomers) [Example 252, (5S)-2-(cyclopropanecarbonylamino)-N-(cyclopropylmethyl)-5-[3-[3-(methylsulfonimidoyl)anilino]-1,2,4-triazol-4-yl]-4,5,6,7-tetrahydrobenzothiophene-3-carboxamide], the IC50 was less than 1 µM.

Consider `Cc1ccc(C2CC(Nc3nncn3[C@H]3CCc4sc(NC(=O)C5CC5)c(C(=O)NCC5CC5)c4C3)C2)cn1` (mixture of isomers) [Example 275, (5S)-2-(cyclopropanecarbonylamino)-N-(cyclopropylmethyl)-5-[3-[[3-(6-methyl-3-pyridyl)cyclobutyl]amino]-1,2,4-triazol-4-yl]-4,5,6,7-tetrahydrobenzothiophene-3-carboxamide], for which the IC50 is less than 1 µM.

Regarding `Cn1nc(OC(F)F)cc1Nc1nncn1[C@H]1CCc2sc(NC(=O)C3CC3(F)F)c(C(=O)NCC3CC3)c2C1` (mixture of isomers) [Example 344, (5S)—N-(cyclopropylmethyl)-2-[(2,2-difluorocyclopropanecarbonyl)amino]-5-[3-[[5-(difluoromethoxy)-2-methylpyrazol-3-yl]amino]-1,2,4-triazol-4-yl]-4,5,6,7-tetrahydro-1-benzothiophene-3-carboxamide], the IC50 is less than 1 µM.

In the case of `Cn1nc(OC(F)F)cc1Nc1nncn1[C@H]1CCc2sc(NC(=O)[C@H]3C[C@H]3F)c(C(=O)NCC3CC3)c2C1` (mixture of isomers) [Example 348, (5S)—N-(cyclopropylmethyl)-5-[3-[[5-(difluoromethoxy)-2-methylpyrazol-3-yl]amino]-1,2,4-triazol-4-yl]-2-[[(1RS,2RS)-2-fluorocyclopropanecarbonyl]amino]-4,5,6,7-tetrahydro-1-benzothiophene-3-carboxamide], the IC50 was less than 1 µM.

On to `Cn1nc(C(F)(F)F)cc1Nc1nncn1[C@H]1CCc2sc(NC(=O)[C@H]3C[C@H]3F)c(C(=O)NCC3CC3)c2C1` (mixture of isomers) [Example 355, (5S)—N-(cyclopropylmethyl)-2-[[(1RS,2RS)-2-fluorocyclopropanecarbonyl]amino]-5-[3-[[2-methyl-5-(trifluoromethyl)pyrazol-3-yl]amino]-1,2,4-triazol-4-yl]-4,5,6,7-tetrahydro-1-benzothiophene-3-carboxamide], for which the half-inhibitory concentration (IC50) was less than 1 µM.

With `Cn1nc(C(F)F)cc1Nc1nncn1[C@H]1CCc2sc(NC(=O)[C@H]3C[C@H]3F)c(C(=O)NCC3CC3)c2C1` (mixture of isomers) [Example 361, (5S)—N-(cyclopropylmethyl)-5-[3-[[5-(difluoromethyl)-2-methylpyrazol-3-yl]amino]-1,2,4-triazol-4-yl]-2-[[(1RS,2RS)-2-fluorocyclopropanecarbonyl]amino]-4,5,6,7-tetrahydro-1-benzothiophene-3-carboxamide], the IC50 was less than 1 µM.

Consider `Cn1nc(C(F)F)cc1Nc1nncn1[C@H]1CCc2sc(NC(=O)C3CC3(F)F)c(C(=O)NCC3CC3)c2C1` (mixture of isomers) [Example 364, (5S)—N-(cyclopropylmethyl)-2-[(2,2-difluorocyclopropanecarbonyl)amino]-5-[3-[[5-(difluoromethyl)-2-methylpyrazol-3-yl]amino]-1,2,4-triazol-4-yl]-4,5,6,7-tetrahydro-1-benzothiophene-3-carboxamide], for which the IC50 was less than 1 µM.

For the molecule `CC1CC1C(=O)Nc1sc2c(c1C(=O)NCC1CC1)C[C@@H](n1cnnc1Nc1cc(C(F)F)nn1C)CC2` (mixture of isomers) [Example 369, (5S)—N-(cyclopropylmethyl)-5-[3-[[5-(difluoromethyl)-2-methylpyrazol-3-yl]amino]-1,2,4-triazol-4-yl]-2-[(2-methylcyclopropanecarbonyl)amino]-4,5,6,7-tetrahydro-1-benzothiophene-3-carboxamide], the IC50 is less than 1 µM.

In the case of `Cn1nc(C(F)F)cc1Nc1nncn1[C@H]1CCc2sc(NC(=O)C3CC3)c(C(=O)NCC3CC3(F)F)c2C1` (mixture of isomers) [Example 381, (5S)-2-(cyclopropanecarbonylamino)-N-[(2,2-difluorocyclopropyl)methyl]-5-[3-[[5-(difluoromethyl)-2-methylpyrazol-3-yl]amino]-1,2,4-triazol-4-yl]-4,5,6,7-tetrahydro-1-benzothiophene-3-carboxamide], the IC50 is less than 1 µM.

For `Cn1nc(C(F)F)cc1Nc1nncn1[C@H]1CCc2sc(NC(=O)C3CC3)c(C(=O)NCC3CC34CC4)c2C1` (mixture of isomers) [Example 384, (5S)-2-(cyclopropanecarbonylamino)-5-[3-[[5-(difluoromethyl)-2-methylpyrazol-3-yl]amino]-1,2,4-triazol-4-yl]-N-(spiro[2.2]pentan-2-ylmethyl)-4,5,6,7-tetrahydro-1-benzothiophene-3-carboxamide], the 50% inhibitory concentration (IC50) is less than 1 µM.

Consider `Cn1nc(C(F)(F)F)cc1Nc1nncn1[C@H]1CCc2sc(NC(=O)[C@H]3C[C@H]3F)c(C(=O)NCC3CC3(F)F)c2C1` (mixture of isomers) [Example 396, (5S)—N-[(2,2-difluorocyclopropyl)methyl]-2-[[(1R,2R)-2-fluorocyclopropanecarbonyl]amino]-5-[3-[[2-methyl-5-(trifluoromethyl)pyrazol-3-yl]amino]-1,2,4-triazol-4-yl]-4,5,6,7-tetrahydro-1-benzothiophene-3-carboxamide], for which the IC50 is less than 1 µM.

Take `Cn1nc(C(F)(F)F)cc1Nc1nncn1[C@H]1CCc2sc(NC(=O)[C@H]3C[C@H]3F)c(C(=O)NC[C@H]3C[C@H](F)C3)c2C1` (mixture of isomers) [Example 400, (5S)—N-[trans-(3-fluorocyclobutyl)methyl]-2-[[(1R,2R)-2-fluorocyclopropanecarbonyl]amino]-5-[3-[[2-methyl-5-(trifluoromethyl)pyrazol-3-yl]amino]-1,2,4-triazol-4-yl]-4,5,6,7-tetrahydro-1-benzothiophene-3-carboxamide]: the IC50 was less than 1 µM.

As to `Cn1nc(C(F)F)cc1Nc1nncn1[C@H]1CCc2sc(NC(=O)[C@H]3CC34CC4)c(C(=O)NCC3CC3(F)F)c2C1` (mixture of isomers) [Example 408, (5S)—N-[(2,2-Difluorocyclopropyl)methyl]-5-[3-[[5-(difluoromethyl)-2-methylpyrazol-3-yl]amino]-1,2,4-triazol-4-yl]-2-[[(2S)-spiro [2.2]pentane-2-carbonyl]amino]-4,5,6,7-tetrahydro-1-benzothiophene-3-carboxamide], the concentration for half-maximal inhibition (IC50) is less than 1 µM.

Consider `Cn1nc(C(F)F)cc1Nc1nncn1[C@H]1CCc2sc(NC(=O)[C@H]3CC34CC4)c(C(=O)NC3CC34CC4)c2C1` (mixture of isomers) [Example 411, (5S)-5-[3-[[5-(Difluoromethyl)-2-methylpyrazol-3-yl]amino]-1,2,4-triazol-4-yl]-2-[[(2S)-spiro[2.2]pentane-2-carbonyl]amino]-N-spiro[2.2]pentan-2-yl-4,5,6,7-tetrahydro-1-benzothiophene-3-carboxamide], for which the IC50 is less than 1 µM.

Regarding `CCOC(=O)c1c(NC(=O)C2CC23CC3)sc2c1C[C@@H](n1cnnc1Nc1cc(C(F)F)nn1C)CC2` (mixture of isomers) [Example 417a, Ethyl (5S)-5-[3-[[5-(difluoromethyl)-2-methyl-pyrazol-3-yl]amino]-1,2,4-triazol-4-yl]-2-(spiro[2.2]pentane-2-carbonylamino)-4,5,6,7-tetrahydrobenzothiophene-3-carboxylate], the IC50 was less than 1 µM.

On to `Cn1nc(OC(F)F)cc1Nc1nncn1[C@H]1CCc2sc(NC(=O)C3CC3)c(C(=O)NC3CC34CC4)c2C1` (mixture of isomers) [Example 452, (5S)-2-(cyclopropanecarbonylamino)-5-[3-[[5-(difluoromethoxy)-2-methylpyrazol-3-yl]amino]-1,2,4-triazol-4-yl]-N-spiro[2.2]pentan-2-yl-4,5,6,7-tetrahydro-1-benzothiophene-3-carboxamide], for which the IC50 was less than 1 µM.
